We go through 25 substances from patent publication US8354522B2, “Immunostimulatory oligoribonucleotides” (Coley Pharmaceutical GmbH, priority 2005, dated 2013).

In this series the test system is Human PBMC. Description: Cytokine production upon human PBMC stimulation (ORN complexed to DOTAP, 16 h, ELISA). Format: cell-based. More on the design: key to IFN-alpha / TNF-alpha: +: cytokine production; −: no cytokine production. The settings on record: for EC50 / IFN-alpha max activity / TNF-alpha max activity: ORN complexed to DOTAP, 16 h; for EC50: full titration 2 μM to 0.9 nM; for IFN-alpha max activity / TNF-alpha max activity: mean max activity at 0.6 μM, 3-6 blood donors; for IFN-alpha / TNF-alpha: human PBMC stimulated for 16 h, supernatant ELISA. As to the method:
Human peripheral blood mononuclear cells (PBMCs) were isolated from healthy donors, plated, and stimulated in vitro with various test and control immunostimulatory agents for 16 hours. After 16 hours, the supernatants were collected and then analyzed by ELISA assay. N-U-R1-R2,-Containing Oligoribonucleotides were tested complexed to DOTAP and with full titration curves (7 concentrations), starting from 2 μM ORN complexed to 25 μg/ml DOTAP and with 1/3 dilution steps. Also included were certain negative controls, including medium alone and DOTAP (25 μg/ml culture well; “Liposomes”) alone. The control immunostimulatory agents included the imidazoquinoline R-848 (2 μM with 1/3 dilution steps and 7 concentrations) the reported ligand for TLR7, ORN having TLR8 motifs such as AU and AUU sequences (SEQ ID NO:13-SEQ ID NO:15) ORN having TLR7/8 motifs such as CU, GU and GUU sequences (SEQ ID NO:19-SEQ ID NO:23).
Human PBMC were stimulated with ORN complexed to DOTAP. After 16 hours supernatants were harvested and TNF-alpha and IFN-alpha levels were measured. Mean/Max activities at 0.6 μM of 3-6 blood donors and two individual experiments were determined. […] TLR8 and TLR7/8 ORN are divided by a red line.
Human PBMC were stimulated with ORN complexed to DOTAP. After 16 hours supernatants were harvested and IFN-alpha levels were measured. Mean/Max activities at 0.6 μM and EC50 of full titration curves (range: 2 μM to 0.9 nM) of 3-6 blood donors and two individual experiments were determined. […] Low EC50/high Max activity represents TLR7/8 ORN (FIG. 5a) whereas high EC50 and low Max activity represents TLR8 ORN (FIG. 5b).
The ORN sequences listed in Table 1 were tested for IFN-alpha and TNF-alpha production upon human PBMC stimulation. Human PBMC were stimulated for 16 h with the indicated ORN, and supernatants were harvested and cytokine production measured by ELISA. Table 2 summarizes the min/max activity and EC50 of ORN for IFN-alpha and TNF-alpha production.
A general note: An ELISA detects its analyte on a solid surface through an enzyme-linked reagent.

The mark [1] stands for this setting: human PBMC, read-out: IFN-alpha EC50.
Where [2] appears, read: human PBMC, read-out: TNF-alpha EC50.

Like-named read-outs stand apart in the source and are kept apart here.

As to “C*C*G*A*G*C*C*A*U*A*U*A*U*C*C*C (CCGAGCCAUAUAUCCC; listed as RNA, chemistry not fully specified) [SEQ ID NO: 38]”, the EC50 (commonly the concentration at which the effect is half-maximal) is, setting by setting: under setting [1], at least 1500 nM; under setting [2], 890 nM. This substance registered an IFN-alpha max activity (human PBMC) of 245 pg/mL. This substance registered a TNF-alpha max activity (human PBMC) of 14064 pg/mL.
For “U*U*U*U*A*U*U*U*U*A*U*U*U*U*A*U*U*U*U*A (UUUUAUUUUAUUUUAUUUUA; chemistry not fully specified) [SEQ ID NO: 15]”, the IFN-alpha result is recorded as “+” and the TNF-alpha result is “+”. For the same substance, under “human PBMC”, the “IFN-alpha production upon PBMC stimulation (in words)” value is on record as “induced IFN-alpha production”.
Consider “C*U*A*G*G*C*A*C (CUAGGCAC; phosphorothioate linkages, chemistry not fully specified) [SEQ ID NO: 3]”, for which the IFN-alpha entry was “−” and the TNF-alpha entry is recorded as “+”.
For “C*C*G*A*G*C*C*G*C*C*U*A*C*C*C*C (CCGAGCCGCCUACCCC; listed as RNA, chemistry not fully specified) [SEQ ID NO: 47]”, under setting [1], the EC50 was at least 1500 nM. The EC50 under setting [2] stood at 566 nM. Where the note is “human PBMC”, this substance showed an IFN-alpha max activity of 271.9 pg/mL and a TNF-alpha max activity of 14265 pg/mL.
In the case of “C*C*G*A*G*C*C*G*C*A*A*U*U*C*C*C [SEQ ID NO: 50] (CCGAGCCGCAAUUCCC; listed as RNA, chemistry not fully specified)”, the EC50 under setting [1] was determined as 562 nM. In addition, under setting [2], the EC50 was determined as 564 nM. For the same substance, where the note is “human PBMC”, the IFN-alpha max activity was found to be 2614 pg/mL and the TNF-alpha max activity was determined as 11141 pg/mL.
In the case of “C*C*G*A*G*C*C*G*A*T*U*U*U*A*C*C (CCGAGCCGANUUUACC; Oligoribonucleotide, chemistry of T and the '*' linkage is not given here, further chemistry not given here) [SEQ ID NO: 59]”, under setting [1], the EC50 came to 74 nM. The EC50 under setting [2] was determined as 224 nM. For the setting “human PBMC”, this substance yielded an IFN-alpha max activity of 1714 pg/mL and a TNF-alpha max activity of 26762 pg/mL.
Taken in the same sequence, the figures for “C*C*G*A*G*C*C*G*C*U*A*U*A*C*C*C (CCGAGCCGCUAUACCC; listed as RNA, chemistry not fully specified) [SEQ ID NO: 37]” were at least 1500 nM, 750 nM, 240.5 pg/mL and 22800 pg/mL.
With “C*C*G*A*G*C*C*G*A*U*G*U*U*A*C*C (CCGAGCCGAUGUUACC; listed as RNA, chemistry not fully specified) [SEQ ID NO: 66]”, the EC50 under setting [1] worked out at 558 nM. Besides, the EC50 under setting [2] is 51 nM. Under “human PBMC”, this substance came in with an IFN-alpha max activity of 1616 pg/mL and a TNF-alpha max activity of 43098 pg/mL.
Take “C*C*G*A*G*C*C*G*A*T*U*G*U*A*C*C (CCGAGCCGANUGUACC; Oligoribonucleotide, chemistry of T and the '*' linkage is not given here, further chemistry not given here) [SEQ ID NO: 62]”: the EC50 under setting [1] was 276 nM. Besides, under setting [2], the EC50 was determined as 343 nM. Further, under “human PBMC”, the IFN-alpha max activity was 1945 pg/mL and the TNF-alpha max activity was found to be 37334 pg/mL.
“G*U*A*G*G*C*A*C (GUAGGCAC; phosphorothioate linkages, chemistry not fully specified) [SEQ ID NO: 1]”: the IFN-alpha result is “−” and the TNF-alpha entry is listed as “+”.
On to “C*C*G*A*G*C*C*G*C*A*U*A*C*C*C*C (CCGAGCCGCAUACCCC; listed as RNA, chemistry not fully specified) [SEQ ID NO: 45]”, for which, under setting [1], the EC50 was found to be 1700 nM. Further, the EC50 under setting [2] was 754 nM. Under “human PBMC”, this substance came in with an IFN-alpha max activity of 98.44 pg/mL and a TNF-alpha max activity of 10491 pg/mL.
Regarding “C*U*A*C*U*A*C*U*A*C*U*A*C*U*A*C*U*A*C*U (CUACUACUACUACUACUACU; listed as RNA, chemistry not fully specified) [SEQ ID NO: 24]”, the IFN-alpha result is “−” and the TNF-alpha entry is “+”. For the setting “human PBMC”, the “IFN-alpha production upon PBMC stimulation (in words)” value is given as “no IFN-alpha production” and the “TNF-alpha production upon PBMC stimulation (in words)” value is “TNF-alpha inducing”.
On to “C*C*G*A*G*C*C*G*A*A*G*G*U*G*C*C (CCGAGCCGAAGGUGCC; listed as RNA, chemistry not fully specified) [SEQ ID NO: 83]”, for which the EC50 under setting [1] is above 2000 nM. Further, the EC50 under setting [2] came to 215 nM. Under “human PBMC”, this substance displayed an IFN-alpha max activity of 96.22 pg/mL and a TNF-alpha max activity of 12207 pg/mL.
As for “C*C*G*A*G*C*C*G*A*U*U*G*C*A*C*C (CCGAGCCGAUUGCACC; listed as RNA, chemistry not fully specified) [SEQ ID NO: 74]”, the EC50 under setting [1] turned out to be 419 nM. Also, the EC50 under setting [2] worked out at 329 nM. Also, for the setting “human PBMC”, the IFN-alpha max activity worked out at 609.1 pg/mL and the TNF-alpha max activity amounted to 30958 pg/mL.
“A*U*A*G*G*C*A*C (AUAGGCAC; phosphorothioate linkages, chemistry not fully specified) [SEQ ID NO: 4]”: the IFN-alpha entry is reported as “−” and the TNF-alpha result was “+”.
On the same counts, the results for “U*U*G*U*U*G*U (UUGUUGU; phosphorothioate linkages, chemistry not fully specified) [SEQ ID NO: 29]” are “+” and “+”.
As to “C*C*G*A*G*C*C*G*A*U*A*U*U*A*C*C (CCGAGCCGAUAUUACC; listed as RNA, chemistry not fully specified) [SEQ ID NO: 65]”, the EC50 under setting [1] amounted to 1130 nM and the EC50 under setting [2] came out at 77 nM. Also, the IFN-alpha max activity (human PBMC) is 335.2 pg/mL. Further, the TNF-alpha max activity (human PBMC) amounted to 39377 pg/mL.
For “C*C*G*A*G*C*C*G*C*A*U*C*C*C*C*C (CCGAGCCGCAUCCCCC; listed as RNA, chemistry not fully specified) [SEQ ID NO: 46]”, the EC50 under setting [1] was above 2000 nM. The EC50 under setting [2] was 765 nM. For the setting “human PBMC”, the IFN-alpha max activity is 74.76 pg/mL and the TNF-alpha max activity is 7096 pg/mL.
As to “U*U*U*U*G*U*U*U*U*G*U*U*U*U*G*U*U*U*U*G (UUUUGUUUUGUUUUGUUUUG; listed as RNA, chemistry not fully specified) [SEQ ID NO: 23]”, the IFN-alpha entry is listed as “+” and the TNF-alpha entry was “+”.
“C*C*G*A*G*C*C*G*A*A*U*C*C*C*C*C (CCGAGCCGAAUCCCCC; listed as RNA, chemistry not fully specified) [SEQ ID NO: 44]”: the EC50 under setting [1] was at least 1500 nM. Further, the EC50 under setting [2] is 321 nM. For the same substance, under “human PBMC”, the IFN-alpha max activity was 305.6 pg/mL and the TNF-alpha max activity was 19473 pg/mL.
Taken in the same sequence, the figures for “C*C*G*A*G*C*C*G*A*T*U*U*C*A*C*C [SEQ ID NO: 68] (CCGAGCCGANUUCACC; Oligoribonucleotide, chemistry of T and the '*' linkage is not given here, further chemistry not given here)” were 18 nM, 217 nM, 1821 pg/mL and 29647 pg/mL.
For “C*C*G*A*G*C*C*G*A*U*U*G*A*A*C*C (CCGAGCCGAUUGAACC; listed as RNA, chemistry not fully specified) [SEQ ID NO: 76]”, the EC50 under setting [1] was found to be 1540 nM. In addition, the EC50 under setting [2] came out at 109 nM. Under “human PBMC”, this substance registered an IFN-alpha max activity of 448.6 pg/mL and a TNF-alpha max activity of 26371 pg/mL.
Regarding “G*U*A*G*U*A*G (GUAGUAG; phosphorothioate linkages, chemistry not fully specified) [SEQ ID NO: 34]”, the IFN-alpha result is recorded as “+” and the TNF-alpha result was “+”.
Turning to “C*C*G*A*G*C*C*G*A*U*C*U*U*A*C*C (CCGAGCCGAUCUUACC; listed as RNA, chemistry not fully specified) [SEQ ID NO: 64]”, the EC50 under setting [1] came to 577 nM. The EC50 under setting [2] was found to be 289 nM. In addition, where the note is “human PBMC”, the IFN-alpha max activity amounted to 1421 pg/mL and the TNF-alpha max activity came out at 30712 pg/mL.
Taken in the same sequence, the figures for “C*C*G*A*G*C*C*G*A*A*G*C*U*C*C*C (CCGAGCCGAAGCUCCC; listed as RNA, chemistry not fully specified) [SEQ ID NO: 84]” were above 2000 nM, 377 nM, 67.76 pg/mL and 8545 pg/mL.
